Like-named read-outs stand apart in the source and are kept apart here.

For data set [1], the system named is HeLa-MaTu human cervical carcinoma xenograft. As to the kind of experiment: HeLa-MaTu cervical tumor xenograft model on NMRI nude mice. The data set is classed as in vivo. The note with it: oral. As to the method: HeLa-MaTu (EPO-GmbH, Berlin) human cervical carcinoma cells, which were grown in cell culture, were implanted subcutaneously in the flank of female NMRI nude mice. […] The study was terminated as soon as the tumors in one of the groups reached a size of approx. 150 mm^2.
(§1) The growth-inhibiting effect of the compounds was tested in the HeLa-MaTu cervical tumor model as xenograft on NMRI nude mice. […] Treatment of the established tumors was begun on day 4 after inoculation of the tumors.
as §1, §1
The study was designed for determining the initial response of a human cervical carcinoma xenograft model to treatments with the 5-Br comparative substance V12. The growth-inhibiting effect of the compounds was tested in the HeLa-MaTu cervical tumor model as xenograft on NMRI nude mice. V12 was dissolved completely in the solubilizer 40% polyethylene glycol 400 (PEG 400)/60% water to a final concentration of 0.7 mg/ml (group 2), 0.85 mg/ml (group 3), or 1.0 mg/ml (group 4). Treatment of the established tumors was begun on day 4 after inoculation of the tumors.
HeLa-MaTu (EPO-GmbH, Berlin) human cervical carcinoma cells, which were grown in cell culture, were implanted subcutaneously in the flank of female NMRI nude mice. […] The study was terminated as soon as the tumors in one of the groups reached a size of approx. 160 mm^2.
(§2) The growth-inhibiting effect of the compounds was tested in the HeLa-MaTu cervical tumor model as xenograft on NMRI nude mice. […] Treatment of the established tumors was begun on day 5 after inoculation of the tumors.
as §2, §2
The following test groups were used: • Group 1: Control, treatment with solubilizer (40% PEG 400/60% water) • Group 2: Compound according to WO 2005/037800 prepared according to preparation V14 disclosed above • (6 mg/kg, oral, 2x daily on day 5, 6, 12, 13, 19, 20) • Group 3: Compound according to WO 2005/037800 prepared according to preparation V14 disclosed above • (8 mg/kg, oral, 2× daily on day 5, 6, 12, 13, 19, 20) • Group 4: Compound according to WO 2005/037800 prepared according to preparation V14 disclosed above • (10 mg/kg, oral, 2× daily on day 5, 6, 12, 13, 19, 20)
The study was designed for determining the initial response of a human cervical carcinoma xenograft model to treatments with the 5-Br comparative substance V14. The growth-inhibiting effect of the compounds was tested in the HeLa-MaTu cervical tumor model as xenograft on NMRI nude mice. V14 was dissolved completely in the solubilizer 40% polyethylene glycol 400 (PEG 400)/60% water to a final concentration of 0.6 mg/ml (group 2), 0.8 mg/ml (group 3), or 1.0 mg/ml (group 4). Treatment of the established tumors was begun on day 5 after inoculation of the tumors.

In data set [2] the test system is HeLa-MaTu cervical carcinoma cells. As to the kind of experiment: Proliferation assay (Assay 4), crystal violet staining. The data set is classed as cell-based. The note with it: Homo sapiens, 96 h, 4 days incubation; read-out: HeLa-MaTu (Assay 4) Concentration for 50% inhibition of cellular proliferation, IC50. As to the method:
10.4 Assay 4: Proliferation Assay
Cultivated human HeLa-MaTu cervical carcinoma cells (obtained from EPO-GmbH, Berlin) were plated at a density of 3000 cells/measuring point in a 96-well multititer is plate in 200 μl of growth medium (DMEM/HAMS F12, 2 mM L-glutamine, 10% fetal calf serum). After 24 hours the cells of one plate (zero-point plate) were stained with crystal violet (see below), whereas the medium of the other plates was replaced with fresh culture medium (200 μl), to which the test substances had been added at various concentrations (0 μM, and in the range 0.01-30 μM; the final concentration of the solvent dimethylsulfoxide was 0.5%). The cells were incubated for 4 days in the presence of the test substances. Cellular proliferation was determined by staining the cells with crystal violet: the cells were fixed by adding 20 μl/measuring point of an 11% glutaraldehyde solution for 15 min at room temperature. After washing the fixed cells with water three times, the plates were dried at room temperature. The cells were stained by adding 100 μl/measuring point of a 0.1% crystal violet solution (pH adjusted to pH3 by adding acetic acid). After washing the stained cells with water three times, the plates were dried at room temperature. The dye was dissolved by adding 100 μl/measuring point of a 10% acetic acid solution. The extinction was determined photometrically at a wavelength of 595 nm. The percentage change in cell growth was calculated by standardization of the measured values to the extinction values of the zero-point plate (=0%) and the extinction of the untreated (0 μM) cells (=100%). The measured data were standardized to 0% inhibition (cell proliferation without inhibitor) and 100% inhibition (zero-point plate). The IC50 values were determined by means of a 4-parameter fit using the company's own software.

In data set [3] the target is T1, CDK2/CycE (Homo sapiens, UniProt P24941).
T1 construct: purchased ProQinase GmbH, Freiburg; host or cells: baculovirus-infected insect cells (Sf9)
As to the kind of experiment: CDK2/CycE kinase assay (Assay 2). The following applies: 0.5 μM ATP, histon IIIS substrate; read-out: CDK2/CycE (Assay 2) Concentration for 50% inhibition of enzyme activity, IC50. It is filed as biochemical. Here is the method: 10.2 Assay 2: CDK2/CycE Kinase Assay
Recombinant CDK2 and CycE-GST fusion proteins, purified from baculovirus-infected insect cells (Sf9), were purchased from ProQinase GmbH, Freiburg. Histon IIIS, used as kinase substrate, was purchased from the company Sigma. CDK2/CycE (50 ng/measuring point) was incubated for 10 min at 22° C. in the presence of various concentrations of test substances (0 μM, and within the range 0.01-100 μM) in assay buffer [50 mM Tris/HCl pH8.0, 10 mM MgCl2, 0.1 mM Na ortho-vanadate, 1.0 mM dithiothreitol, 0.5 μM adenosine triphosphate (ATP), 10 μg/measuring point histon IIIS, 0.2 μCi/measuring point ^33P-gamma ATP, 0.05% NP40, 1.25% dimethylsulfoxide]. The reaction was stopped by adding EDTA solution (250 mM, pH8.0, 15 μl/measuring point).
(§3) From each reaction mixture, 15 μl was applied to P30 filter strips (from Wallac), and unincorporated ^33P-ATP was removed by washing the filter strips three times, for 10 min each time, in 0.5% phosphoric acid. After drying the filter strips for 1 hour at 70° C., the filter strips were covered with scintillator strips (MeltiLex™ A, from Wallac) and stoved for 1 hour at 90° C. The amount of incorporated ^33P (substrate phosphorylation) was determined by scintillation measurement in a gamma-radiation measuring instrument (Wallac). The measured data were standardized to 0% inhibition (enzyme reaction without inhibitor) and 100% inhibition (all assay components except enzyme). The IC50 values were determined by means of a 4-parameter fit using the company's own software.

Data set [4] has as its target T2, CDK1/CycB (Homo sapiens, UniProt P06493).
T2 construct: purchased ProQinase GmbH, Freiburg; host or cells: baculovirus-infected insect cells (Sf9)
Briefly: CDK1/CycB kinase assay (Assay 1). It is filed as biochemical. The following applies: 0.5 μM ATP, histon IIIS substrate; read-out: CDK1/CycB (Assay 1) Concentration for 50% inhibition of enzyme activity, IC50. Here is the method:
10.1 Assay 1: CDK1/CycB Kinase Assay
Recombinant CDK1 and CycB-GST fusion proteins, purified from baculovirus-infected insect cells (Sf9), were purchased from ProQinase GmbH, Freiburg. The histon IIIS used as kinase substrate is commercially available from the company Sigma.
CDK1/CycB (200 ng/measuring point) was incubated for 10 min at 22° C. in the presence of various concentrations of test substances (0 μM, and within the range 0.01-100 μM) in assay buffer [50 mM Tris/HCl pH8.0, 10 mM MgCl2, 0.1 mM Na ortho-vanadate, 1.0 mM dithiothreitol, 0.5 μM adenosine triphosphate (ATP), 10 μg/measuring point histon IIIS, 0.2 μCi/measuring point ^33P-gamma ATP, 0.05% NP40, 1.25% dimethylsulfoxide]. The reaction was stopped by adding EDTA solution (250 mM, pH8.0, 15 μl/measuring point).
as §3

Where [5] appears, read: 2.5 mg/kg (group 4), 2x daily on day 5, 6, 12, 13, 19, 20, day 20.
Where [6] appears, read: 1.5, 2.0, 2.5 mg/kg, 2x daily on day 5, 6, 12, 13, 19, 20.
Setting [7] is: Mus musculus, 480 h, 2.5 mg/kg (group 4), 2x daily on day 5, 6, 12, 13, 19, 20, day 20, read-out: treatment/control ratio T/C (tumor weight).

T2 sequence (P06493 whole entry): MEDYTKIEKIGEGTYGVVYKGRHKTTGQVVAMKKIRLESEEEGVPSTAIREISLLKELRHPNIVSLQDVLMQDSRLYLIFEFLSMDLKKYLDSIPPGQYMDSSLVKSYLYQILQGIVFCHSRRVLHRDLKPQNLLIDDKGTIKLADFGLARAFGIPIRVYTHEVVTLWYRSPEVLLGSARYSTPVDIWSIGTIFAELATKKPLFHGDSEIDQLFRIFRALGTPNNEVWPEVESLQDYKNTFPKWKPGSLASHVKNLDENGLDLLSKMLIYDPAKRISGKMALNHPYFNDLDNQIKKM
T2 sequence (P14635 whole entry partner): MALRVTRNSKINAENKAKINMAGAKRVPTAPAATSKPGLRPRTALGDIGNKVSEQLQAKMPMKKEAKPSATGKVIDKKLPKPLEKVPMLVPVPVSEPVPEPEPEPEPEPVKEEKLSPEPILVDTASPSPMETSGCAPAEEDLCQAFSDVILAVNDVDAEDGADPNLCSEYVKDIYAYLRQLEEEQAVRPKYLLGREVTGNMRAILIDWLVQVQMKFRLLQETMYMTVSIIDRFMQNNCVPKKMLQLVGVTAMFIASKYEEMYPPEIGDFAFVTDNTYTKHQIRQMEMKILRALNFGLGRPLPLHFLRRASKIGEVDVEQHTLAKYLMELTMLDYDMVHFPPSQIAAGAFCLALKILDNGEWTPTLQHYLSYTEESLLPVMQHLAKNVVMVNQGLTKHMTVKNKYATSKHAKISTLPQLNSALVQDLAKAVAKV

Take `C[C@@H](O)[C@@H](C)Oc1nc(Nc2ccc(S(=N)(=O)C3CC3)cc2)ncc1C(F)(F)F` (mixture of isomers) [Example 1-SI-2, (RS)-S-Cyclopropyl-S-(4-{[4-{[(1R,2R)-2-hydroxy-1-methylpropyl]oxy}-5-(trifluoromethyl)pyrimidin-2-yl]amino}phenyl)sulfoximide]: in data set [1] (setting [5]), the “reduction of tumor weight at the end of the study to % of the control group” value (“reduction … to % of the control group” below) was 19%. The “effect on tumor growth (in words)” value in data set [1] (setting [6]) was “dose-dependent inhibition of tumor growth”. The response vs control in vivo at 2.5 mg/kg in data set [1] (setting [7]) turned out to be 19%.

On to `C[C@@H](O)[C@@H](C)Oc1nc(Nc2ccc(S(C)(=N)=O)cc2)ncc1C(F)(F)F` (mixture of isomers) [Example 2-SI-2, (RS)-S-(4-{[4-{[(1R,2R)-2-Hydroxy-1-methylpropyl]oxy}-5-(trifluoromethyl)pyrimidin-2-yl]amino}phenyl)-S-methylsulfoximide], for which the IC50 in data set [2] is 8 nM. The “reduction … to % of the control group” value in data set [1] (setting [5]) came to 18%. In data set [1] (setting [6]), the “effect on tumor growth (in words)” value is recorded as “dose-dependent inhibition of tumor growth”. In addition, the response vs control in vivo at 2.5 mg/kg in data set [1] (setting [7]) came out at 18%.

As for `C[C@@H](Nc1nc(Nc2ccc(S(C)(=N)=O)cc2)ncc1C(F)(F)F)C(C)(C)O` (single isomer, unassigned) [Example 9-SI-1], the IC50 in data set [3] amounted to 5 nM.

For the compound `CCS(=N)(=O)c1ccc(Nc2ncc(C(F)(F)F)c(N[C@H](C)[C@@H](C)O)n2)cc1` (mixture of isomers) [Example 6-SI-2, (RS)-S-Ethyl-S-(4-{[4-{[(1R,2R)-2-hydroxy-1-methylpropyl]amino}-5-(trifluoromethyl)pyrimidin-2-yl]amino}phenyl)sulfoximide], the “reduction … to % of the control group” value in data set [1] (5 mg/kg (group 4), 2x daily on day 4, 5, 11, 12, 17, 18, day 20) came to 8%. Moreover, the “effect on tumor growth (in words)” value in data set [1] (3, 4, 5 mg/kg, 2x daily on day 4, 5, 11, 12, 17, 18) is reported as “dose-dependent inhibition of tumor growth”. The response vs control in vivo at 5 mg/kg in data set [1] (Mus musculus, 480 h, 5 mg/kg (group 4), 2x daily on day 4, 5, 11, 12, 17, 18, day 20, read-out: treatment/control ratio T/C (tumor weight)) stood at 8%.

As to `C[C@@H](Nc1nc(Nc2ccc(S(=N)(=O)C3CC3)cc2)ncc1C(F)(F)F)C(C)(C)O` (mixture of isomers) [Example 5-SI-2, (RS)-S-Cyclopropyl-S-(4-{[4-{[(R)-2-hydroxy-1,2-dimethylpropyl]amino}-5-(trifluoromethyl)pyrimidin-2-yl]amino}phenyl)sulfoximide], the “effect on tumor growth (in words)” value in data set [1] (5 mg/kg, 2x daily on day 4, 5, 11, 12) is “greatly inhibited tumor growth”. Further, the “reduction … to % of the control group” value in data set [1] (5 mg/kg, 2x daily on day 4, 5, 11, 12, day 17) is on record as 7%. For the same compound, the response vs control in vivo at 5 mg/kg in data set [1] (Mus musculus, 408 h, 5 mg/kg, 2x daily on day 4, 5, 11, 12, day 17, read-out: treatment/control ratio T/C (tumor weight)) came to 7%.

In the case of `CCS(=N)(=O)c1ccc(Nc2ncc(C(F)(F)F)c(N[C@H](C)[C@@H](C)O)n2)cc1` (mixture of isomers) [Example 6-SI-1, (RS)-S-Ethyl-S-(4-{[4-{[(1R,2R)-2-hydroxy-1-methylpropyl]amino}-5-(trifluoromethyl)pyrimidin-2-yl]amino}phenyl)sulfoximide], in data set [2], the IC50 is 16 nM.

For the compound `C[C@@H](Nc1nc(Nc2ccc([S@](=N)(=O)C3CC3)cc2)ncc1Br)C(C)(C)O` [Example V11, (R)-S-[4-({5-bromo-4-[(R)-(2-hydroxy-1,2-dimethylpropyl)amino]pyrimidin-2-yl}amino)phenyl]-S-cyclopropyl-sulfoximide], the values for the IC50 in data set [4], in data set [2] and in data set [3] were 8 nM, 13 nM and 7 nM, respectively. Also, the “tolerability of the cyclic treatment regimen” value in data set [1] (8 mg/kg, 2x daily on 2 successive days followed by 5 treatment-free days) was “well-tolerated”. For the same compound, the “effect on tumor growth (in words)” value in data set [1] (8 mg/kg, 2x daily on day 4, 5, 11, 12) is on record as “inhibited tumor growth”. For the same compound, the “reduction … to % of the control group” value in data set [1] (8 mg/kg, 2x daily on day 4, 5, 11, 12, day 17) turned out to be 39%. Besides, the response vs control in vivo at 8 mg/kg in data set [1] (Mus musculus, 408 h, 8 mg/kg, 2x daily on day 4, 5, 11, 12, day 17, read-out: treatment/control ratio T/C (tumor weight)) is 39%.

Regarding `C[C@@H](Nc1nc(Nc2ccc(S(C)(=N)=O)cc2)ncc1C(F)(F)F)C(C)(C)O` (single isomer, unassigned) [Example 9-SI-2], the IC50 in data set [3] came to 3 nM.

These data come from patent US8735412B2, “Sulfoximine-substituted anilinopyrimidine derivatives as CDK inhibitors, the production thereof, and use as medicine” (Bayer Intellectual Property GmbH, priority 2008, dated 2014).
